From PubChem BioAssay (NCI) come the findings set out here.

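Growth conditions: 96-well plates. Treatment: test compound, 48 hours, 5 concentrations. Analysis: linear interpolation between bracketing concentrations; unreached endpoints set to highest concentration. TGI marks complete inhibition of growth.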 Where only a bound is given, the exact number is not on record here.

The test system of the first assay is EKVX NSCLC. Kind of assay: growth of human tumour cells (NCI), 48 h.
As to `O=C(CC(=O)N(C(=O)/C=C\c1ccccc1)c1ccc(Cl)cc1)N1N=C(c2ccccc2)C(N=Nc2cccc([N+](=O)[O-])c2)C1=O` (stereo unspecified), the TGI was over 100 µM.

In turn, `Cc1cc(=O)[nH]c(-n2[nH]c(C)c(CCO)c2=O)n1` showed a TGI of over 100 µM.

Compound `COc1ccc(Nc2nnc(-c3nsc4ccccc34)s2)cc1` gave a TGI of over 100 µM.

In the case of `CCOC(=O)c1cnc2oc3ccc(O)cc3c2c1C`, the TGI was over 100 µM.

Compound `CN(C)CCCSc1nc2ccccc2[nH]1` showed a TGI of over 100 µM.

A further assay relates to HCT-116 colon. In words: growth of human tumour cells (NCI), 48 h.
`Cc1ccc(S(=O)(=O)n2cc(-c3cc(C(F)(F)F)ccn3)c3cc(Br)ccc32)cc1` yielded a TGI of 53 µM.

Turning to `Cc1cc2ccccc2n2c1nc1ccccc12`, the TGI is over 100 µM.

For `CC1C2(C)OC(=N)C(C#N)(C(c3ccccc3)O2)C1(C#N)C#N` (stereo unspecified), the TGI was 49.8 µM.

Compound `[N-]=[N+]=Nc1ccccc1C(=O)N1C(=O)c2ccccc2C(=O)N(C(=O)c2ccccc2N=[N+]=[N-])c2ccccc21` registered a TGI of over 100 µM.

As to `COC1(OC)c2no[n+]([O-])c2CCC1O` (stereo unspecified), the TGI was over 100 µM.

On to `CN(C)Nc1cc(=O)[nH]c(=O)[nH]1`, for which the TGI was over 100 µM.

Take `Clc1ccc(NCc2nnc(CCCCCCCCc3nnc(CNc4ccc(Cl)cc4)o3)o2)cc1`: the TGI was over 100 µM.

Take `O=C(CC(=O)N(C(=O)/C=C\c1ccccc1)c1ccc(Cl)cc1)N1N=C(c2ccccc2)C(N=Nc2cccc([N+](=O)[O-])c2)C1=O` (stereo unspecified): the TGI came out at 13.5 µM.

`Cc1cc(=O)[nH]c(-n2[nH]c(C)c(CCO)c2=O)n1`: the TGI was over 100 µM.

In the case of `COc1ccc(Nc2nnc(-c3nsc4ccccc34)s2)cc1`, the TGI was 45.2 µM.

`CCOC(=O)c1cnc2oc3ccc(O)cc3c2c1C` registered a TGI of over 100 µM.

Take `CN(C)CCCSc1nc2ccccc2[nH]1`: the TGI was over 100 µM.

A further assay has as its system HCT-15 colon. In words: growth of human tumour cells (NCI), 48 h.
Turning to `Cc1ccc(S(=O)(=O)n2cc(-c3cc(C(F)(F)F)ccn3)c3cc(Br)ccc32)cc1`, the TGI was over 100 µM.

With `Cc1cc2ccccc2n2c1nc1ccccc12`, the TGI was over 100 µM.

Take `CC1C2(C)OC(=N)C(C#N)(C(c3ccccc3)O2)C1(C#N)C#N` (stereo unspecified): the TGI is 22.9 µM.

For `[N-]=[N+]=Nc1ccccc1C(=O)N1C(=O)c2ccccc2C(=O)N(C(=O)c2ccccc2N=[N+]=[N-])c2ccccc21`, the TGI is over 100 µM.

`COC1(OC)c2no[n+]([O-])c2CCC1O` (stereo unspecified): the TGI was over 100 µM.

In turn, `CN(C)Nc1cc(=O)[nH]c(=O)[nH]1` came in with a TGI of over 100 µM.

On to `Clc1ccc(NCc2nnc(CCCCCCCCc3nnc(CNc4ccc(Cl)cc4)o3)o2)cc1`, for which the TGI was over 100 µM.

As to `O=C(CC(=O)N(C(=O)/C=C\c1ccccc1)c1ccc(Cl)cc1)N1N=C(c2ccccc2)C(N=Nc2cccc([N+](=O)[O-])c2)C1=O` (stereo unspecified), the TGI stood at 21.6 µM.

Consider `Cc1cc(=O)[nH]c(-n2[nH]c(C)c(CCO)c2=O)n1`, for which the TGI was over 100 µM.

As for `COc1ccc(Nc2nnc(-c3nsc4ccccc34)s2)cc1`, the TGI is over 100 µM.

The compound `CCOC(=O)c1cnc2oc3ccc(O)cc3c2c1C` yielded a TGI of over 100 µM.

Compound `CN(C)CCCSc1nc2ccccc2[nH]1` registered a TGI of over 100 µM.

The next assay concerns HL-60(TB) leukemia. In words: growth of human tumour cells (NCI), 48 h.
The compound `Cc1ccc(S(=O)(=O)n2cc(-c3cc(C(F)(F)F)ccn3)c3cc(Br)ccc32)cc1` came in with a TGI of over 100 µM.

`Cc1cc2ccccc2n2c1nc1ccccc12` yielded a TGI of over 100 µM.

As for `CC1C2(C)OC(=N)C(C#N)(C(c3ccccc3)O2)C1(C#N)C#N` (stereo unspecified), the TGI was determined as 40.1 µM.

With `CN(C)Nc1cc(=O)[nH]c(=O)[nH]1`, the TGI is over 100 µM.

On to `O=C(CC(=O)N(C(=O)/C=C\c1ccccc1)c1ccc(Cl)cc1)N1N=C(c2ccccc2)C(N=Nc2cccc([N+](=O)[O-])c2)C1=O` (stereo unspecified), for which the TGI was 11.1 µM.

`Cc1cc(=O)[nH]c(-n2[nH]c(C)c(CCO)c2=O)n1` returned a TGI of over 100 µM.

As to `COc1ccc(Nc2nnc(-c3nsc4ccccc34)s2)cc1`, the TGI is over 100 µM.

As to `CCOC(=O)c1cnc2oc3ccc(O)cc3c2c1C`, the TGI was over 100 µM.

Another assay deals with HOP-62 NSCLC. In words: growth of human tumour cells (NCI), 48 h.
Compound `Cc1ccc(S(=O)(=O)n2cc(-c3cc(C(F)(F)F)ccn3)c3cc(Br)ccc32)cc1` returned a TGI of 29.5 µM.

Take `Cc1cc2ccccc2n2c1nc1ccccc12`: the TGI is over 100 µM.

`[N-]=[N+]=Nc1ccccc1C(=O)N1C(=O)c2ccccc2C(=O)N(C(=O)c2ccccc2N=[N+]=[N-])c2ccccc21` registered a TGI of 81 µM.

In turn, `COC1(OC)c2no[n+]([O-])c2CCC1O` (stereo unspecified) had a TGI of over 100 µM.

For the compound `CN(C)Nc1cc(=O)[nH]c(=O)[nH]1`, the TGI is over 100 µM.

`Clc1ccc(NCc2nnc(CCCCCCCCc3nnc(CNc4ccc(Cl)cc4)o3)o2)cc1` had a TGI of over 100 µM.

Regarding `O=C(CC(=O)N(C(=O)/C=C\c1ccccc1)c1ccc(Cl)cc1)N1N=C(c2ccccc2)C(N=Nc2cccc([N+](=O)[O-])c2)C1=O` (stereo unspecified), the TGI was 40.8 µM.

In turn, `Cc1cc(=O)[nH]c(-n2[nH]c(C)c(CCO)c2=O)n1` displayed a TGI of over 100 µM.

`COc1ccc(Nc2nnc(-c3nsc4ccccc34)s2)cc1` came in with a TGI of 36.1 µM.

In turn, `CN(C)CCCSc1nc2ccccc2[nH]1` gave a TGI of over 100 µM.

The test system of a further assay is HOP-92 NSCLC. Kind of assay: growth of human tumour cells (NCI), 48 h.
Consider `Cc1ccc(S(=O)(=O)n2cc(-c3cc(C(F)(F)F)ccn3)c3cc(Br)ccc32)cc1`, for which the TGI was 35.3 µM.

`Cc1cc2ccccc2n2c1nc1ccccc12` came in with a TGI of over 100 µM.

The compound `CC1C2(C)OC(=N)C(C#N)(C(c3ccccc3)O2)C1(C#N)C#N` (stereo unspecified) had a TGI of 29.7 µM.

Take `[N-]=[N+]=Nc1ccccc1C(=O)N1C(=O)c2ccccc2C(=O)N(C(=O)c2ccccc2N=[N+]=[N-])c2ccccc21`: the TGI worked out at 83.5 µM.

`COC1(OC)c2no[n+]([O-])c2CCC1O` (stereo unspecified): the TGI was over 100 µM.

`CN(C)Nc1cc(=O)[nH]c(=O)[nH]1` yielded a TGI of over 100 µM.

On to `Clc1ccc(NCc2nnc(CCCCCCCCc3nnc(CNc4ccc(Cl)cc4)o3)o2)cc1`, for which the TGI was over 100 µM.

In the case of `O=C(CC(=O)N(C(=O)/C=C\c1ccccc1)c1ccc(Cl)cc1)N1N=C(c2ccccc2)C(N=Nc2cccc([N+](=O)[O-])c2)C1=O` (stereo unspecified), the TGI was over 100 µM.

For the compound `COc1ccc(Nc2nnc(-c3nsc4ccccc34)s2)cc1`, the TGI is 41.8 µM.
